Experimental data reported in the NIST ThermoML archive (doi:10.1021/acs.jced.8b00614).

Experiments:
[1] = Liquid; for mass density: 298.2 K, 101.33 kPa, Vibrating tube method; for vapor or sublimation pressure: Chromatography
[2] = Boiling temperature at pressure P; details: Liquid, Ebulliometric method (Recirculating still)
[3] = refractive index (Na D-line) (dimensionless); details: 298.2 K; 101.33 kPa; Liquid; Standard Abbe refractometry

CC(C)CC(C)(C)C [2,2,4-trimethylpentane]
Details	mass density [kg/m3]	refractive index
[1]	687.73	–
[3]	–	1.3891

Details	Boiling temperature at pressure P [°C]	vapor or sublimation pressure [kPa]
[1], 307.2 K	–	10
[1], 317.2 K	–	15.3
[1], 327.2 K	–	22.8
[1], 350.2 K	–	51.6
[1], 360.2 K	–	70.7
[1], 370.2 K	–	95
[2], 5 kPa	19.4	–
[2], 10 kPa	34.0	–
[2], 20 kPa	50.7	–
[2], 30 kPa	61.4	–
[2], 40 kPa	69.5	–
[2], 50 kPa	76.1	–
[2], 60 kPa	81.8	–
[2], 70 kPa	86.7	–
[2], 80 kPa	91.1	–
[2], 90 kPa	95.2	–
[2], 99.7 kPa	98.8	–

CCCCCO [pentan-1-ol]
Details	mass density [kg/m3]	refractive index
[1]	810.9	–
[3]	–	1.40764

Details	Boiling temperature at pressure P [°C]	vapor or sublimation pressure [kPa]
[1], 317.2 K	–	1.1
[1], 327.2 K	–	2.1
[1], 350.2 K	–	8
[1], 360.2 K	–	13.3
[1], 370.2 K	–	21
[2], 1.1 kPa	44.2	–
[2], 5 kPa	68.2	–
[2], 10 kPa	81.4	–
[2], 20 kPa	96	–
[2], 30 kPa	105.2	–
[2], 40 kPa	112.4	–
[2], 50 kPa	118.2	–
[2], 60 kPa	123.1	–
[2], 70 kPa	127.2	–
[2], 79.9 kPa	131.1	–
[2], 90 kPa	134.6	–
[2], 99.7 kPa	137.7	–

COC(C)(C)C [2-methoxy-2-methylpropane]
Details	mass density [kg/m3]	refractive index
[1]	735.38	–
[3]	–	1.36632

Details	Boiling temperature at pressure P [°C]	vapor or sublimation pressure [kPa]
[1], 307.2 K	–	47.7
[1], 317.2 K	–	68.9
[1], 327.2 K	–	97.1
[2], 20 kPa	13.0	–
[2], 30 kPa	22.2	–
[2], 40 kPa	29.5	–
[2], 50 kPa	35.2	–
[2], 60 kPa	40.2	–
[2], 70 kPa	44.5	–
[2], 79.9 kPa	48.4	–
[2], 90 kPa	51.8	–
[2], 99.7 kPa	55.0	–
